The text below walks through data of patent publication US7482346B2, “Derivatives of alkylpiperazine and alkylhomopiperazine-carboxylates, preparation method thereof and use of same as fatty acid amido hydrolase enzyme inhibitors” (Sanofi-Aventis, priority 2004, dated 2009).

One series concerns male OFI mice. As to the kind of experiment: analgesia test: abdominal stretches induced by PBQ (phenylbenzoquinone). Format: in vivo, mouse. Particulars: dose of 10 mg/kg at 120 minutes, PBQ 2 mg/kg i.p. On the procedure: The in vivo activity of the compounds of the invention was evaluated in an analgesia test.
Accordingly, intraperitoneal (i.p.) administration of PBQ (phenylbenzoquinone, 2 mg/kg in a 0.9% sodium chloride solution containing 5% of ethanol) to male OFI mice weighing 25 to 30 g causes abdominal stretches, on average 30 twists or contractions during the period from 5 to 15 minutes after injection. The test compounds are administered orally (p.o.) or intraperitoneally (i.p.) in suspension in Tween 80 at 0.5%, 60 minutes or 120 minutes before the administration of PBQ. […] For example, compounds 49 and 69 of the table reduce by 43% and 47% respectively, the number of stretches induced by PBQ, at a dose of 10 mg/kg at 120 minutes.

Series [1] deals with T1, FAAH (fatty acid amide hydrolase) (Mus musculus, UniProt O08914).
T1 construct: Membrane homogenates are prepared at the time of use by homogenizing the tissues in a Polytron; from tissue; host or cells: mouse brain (minus the cerebellum), membrane homogenate
T1 sequence (O08914 1-579): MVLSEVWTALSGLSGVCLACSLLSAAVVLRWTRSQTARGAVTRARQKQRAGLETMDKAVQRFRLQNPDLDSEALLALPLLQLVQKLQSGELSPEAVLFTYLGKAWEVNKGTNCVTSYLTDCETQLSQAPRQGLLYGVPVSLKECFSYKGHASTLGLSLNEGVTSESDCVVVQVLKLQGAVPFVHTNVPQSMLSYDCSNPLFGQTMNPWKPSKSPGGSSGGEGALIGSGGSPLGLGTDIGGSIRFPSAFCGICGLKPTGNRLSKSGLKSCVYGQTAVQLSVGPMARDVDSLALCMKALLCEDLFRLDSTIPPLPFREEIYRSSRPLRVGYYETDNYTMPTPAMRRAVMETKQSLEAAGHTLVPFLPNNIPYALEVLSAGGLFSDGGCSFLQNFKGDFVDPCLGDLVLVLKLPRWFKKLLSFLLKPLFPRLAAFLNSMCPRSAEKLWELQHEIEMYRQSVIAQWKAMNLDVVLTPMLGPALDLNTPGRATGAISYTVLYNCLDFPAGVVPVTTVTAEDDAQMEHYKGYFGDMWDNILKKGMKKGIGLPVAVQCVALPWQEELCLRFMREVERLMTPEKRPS
In words: radio-enzymatic assay of FAAH inhibition (hydrolysis of anandamide [1-3H ethanolamine]). It counts as biochemical. Particulars: mouse brain membrane homogenates; anandamide [1-3H ethanolamine] 10 μM; 15 minutes at 25° C.; read-out: IC50 (concentration inhibiting by 50% the control enzyme activity of FAAH). On the procedure: The compounds of the invention were subjected to pharmacological tests permitting determination of their inhibitory effect on the enzyme FAAH (fatty acid amide hydrolase).
Accordingly, mouse brains (minus the cerebellum) are removed and stored at −80° C. Membrane homogenates are prepared at the time of use by homogenizing the tissues in a Polytron in a 10 mM Tris-HCl buffer (pH 8) containing 150 mM NaCl and 1 mM EDTA. The enzyme reaction is subsequently conducted in 70 μl of buffer containing bovine serum albumin without fatty acids (1 mg/ml). In succession, the test compounds, at various concentrations, anandamide [1-^3H ethanolamine] (specific activity: 15-20 Ci/mmol) diluted to 10 μM with cold anandamide, and the membrane preparation (400 μg of frozen tissue per assay) are added. After 15 minutes at 25° C. the enzyme reaction is terminated by adding 140 μl of chloroform/methanol (2:1). The mixture is stirred for 10 minutes and then centrifuged for 15 minutes at 3500 g. An aliquot (30 μl) of the aqueous phase containing the 1-^3H ethanolamine is counted by liquid scintillation.

Structures can show the parent of a compound that is named as a salt.

As usually defined, the melting point is the temperature, or range, at which the solid turns liquid. `NC(=O)COC(=O)N1CCCN(CC#Cc2cccc(C(F)(F)F)c2)CC1` [Compound 99, 2-amino-2-oxoethyl 4-{3-[3-(trifluoromethyl)phenyl]prop-2-yn-1-yl}-1,4-diazepane-1-carboxylate] showed a melting point of 102 to 104 °C. As to `CNC(=O)COC(=O)N1CCN(CCCc2cc(-c3ccc(Cl)cc3)no2)CC1` [Compound 69, 2-(methylamino)-2-oxoethyl 4-{3-[3-(4-chlorophenyl)isoxazol-5-yl]propyl}piperazine-1-carboxylate], the “reduction of the number of stretches induced by PBQ” value in the series with male OFI mice came out at 47%. Regarding `CNC(=O)COC(=O)N1CCN(CCc2cccc3ccccc23)CC1` [Compound 21, 2-(methylamino)-2-oxoethyl 4-[2-(1-naphthyl)ethyl]piperazine-1-carboxylate], the IC50 in series [1] came to 72 nM. Still for that read-out and setting: next, `CNC(=O)COC(=O)N1CCN(CCCc2cccc(-c3ccccc3)c2)CC1` [Compound 48, 2-(methylamino)-2-oxoethyl 4-(3-biphenyl-3-ylpropyl)piperazine-1-carboxylate]: 50 nM. The molecule `CNC(=O)COC(=O)N1CCN(CCc2cc(-c3ccc(Cl)cc3)no2)CC1` [Compound 29, 2-(methylamino)-2-oxoethyl 4-{2-[3-(4-chlorophenyl)isoxazol-5-yl]ethyl}piperazine-1-carboxylate] gave a melting point of 130 to 132 °C. Still for that read-out and setting: next, `CNC(=O)COC(=O)N1CCN(CCOc2ccc(Cl)cc2)CC1` [Compound 130, 2-(methylamino)-2-oxoethyl 4-{2-[(4-chlorophenyl)oxy]ethyl}piperazine-1-carboxylate]: 159 to 161 °C.

`CNC(=O)COC(=O)N1CCN(CCc2ccc3ccccc3c2)CC1` [Compound 25, 2-(methylamino)-2-oxoethyl 4-(2-naphthalen-2-ylethyl)piperazine-1-carboxylate] returned a melting point of 133 to 135 °C. Consider `CNC(=O)COC(=O)N1CCN(CCCc2ccc(-c3ccccc3)cc2)CC1` [Compound 49, 2-(methylamino)-2-oxoethyl 4-(3-biphenyl-4-ylpropyl)piperazine-1-carboxylate], for which, in series [1], the IC50 is 32 nM. The “reduction of the number of stretches induced by PBQ” value with male OFI mice was 43%. `CNC(=O)COC(=O)N1CCN(C/C=C/c2ccccc2)CC1` [Compound 85, 2-(methylamino)-2-oxoethyl trans-4-(3-phenylprop-2-en-1-yl)piperazine-1-carboxylate] returned a melting point of 109 to 111 °C. On the same count and under the same terms, in the case of `CNC(=O)COC(=O)N1CCN(C(C)(C)CCc2cccc(-c3ccccc3)c2)CC1` (as salt: HCl) [Compound 50, 2-(methylamino)-2-oxoethyl 4-(3-biphenyl-3-yl-1,1-dimethylpropyl)piperazine-1-carboxylate hydrochloride] it was 212 to 216 °C (dec.); in that of `CNC(=O)COC(=O)N1CCN(CCCc2cccc(-c3cccc(Cl)c3)c2)CC1` [Compound 52, 2-(methylamino)-2-oxoethyl 4-[3-(3′-chlorobiphenyl-3-yl)propyl]piperazine-1-carboxylate], 82 to 85 °C.
